# What was measured:
# RS4;11 cells = test: RS4;11 cell proliferation assay (CellTiter-Glo); type: cell-based; settings: Homo sapiens, 48 h compound treatment, read-out: RS4;11 (nM) CTG IC50
# Experimental: (§1) Cell proliferation was measured using the CellTiter-Glo@ Luminescent Cell Viability Assay. The assay involved the addition of a single reagent (CellTiter-Glo® Reagent) directly to cells cultured in serum-supplemented medium. RS4;11 (ATC, CRL-1873) cells were cultured according to ATCC recommendations and were seeded at 50,000 cells per well. NCI-H1963 cells (ATCC CRL-5982) were cultured according to ATCC recommendations and seeded at 12,000 cells per well.
# (§2) Each compound evaluated was prepared as a DMSO stock solution (10 mM). Compounds were tested in duplicate on each plate, with a 10-point serial dilution curve (1:3 dilution). Compound treatment (1.0 μL) was added from the compound dilution plate to the cell plate. The highest compound concentration was 10 μM (final), with a 0.1% final DMSO concentration. Plates were then incubated at 37° C., 5% CO2. After 48 h of compound treatment for RS4;11 or 72 h for NCI-H1963, cell plates were equilibrated at rt for approximately 30 mins. An equi-volume amount of CellTiter-Glo@ Reagent (40 μL) was added to each well. Plates were mixed for 2 mins on an orbital shaker to induce cell lysis and then incubated at RT for 10 mins to stabilize the luminescent signal. Luminescence was recorded using a Envision plate reader according to CellTiter-Glo protocol. IC50 of each compound was calculated using GraphPad Prism by nonlinear regression analysis.
# NCI-H1963 cells = test: NCI-H1963 cell proliferation assay (CellTiter-Glo); type: cell-based; settings: Homo sapiens, 72 h compound treatment, read-out: H1963 (nM) CTG IC50
# Experimental: as §1, §2
Compound,IC50 (RS4;11 cells),IC50 (NCI-H1963 cells)
"CC1(C)CCC(c2ccc(Cl)cc2)=C(CN2CCN(c3ccc(C(=O)NS(=O)(=O)c4ccc(N[C@H](CCN5CCOCC5)CSc5ccccc5)c(S(=O)(=O)C(F)(F)F)c4)cc3)CC2)C1 [ABT-263, reference compound]",< 100 nM,≤ 500 nM
"CC1(C)CCC(C23CC(C(F)F)(C2)C3)=C(CN2CCN(c3ccc(C(=O)NS(=O)(=O)c4ccc(N[C@H](CCN5CCC(O)CC5)CSc5ccccc5)c(S(=O)(=O)C(F)(F)F)c4)cc3)CC2)C1 [Example 65, (R)-4-(4-((2-(3-(difluoromethyl)bicyclo[1.1.1]pentan-1-yl)-5,5-dimethylcyclohex-1-en-1-yl)methyl)piperazin-1-yl)-N-((4-((4-(4-hydroxypiperidin-1-yl)-1-(phenylthio)butan-2-yl)amino)-3-((trifluoromethyl)sulfonyl)phenyl)sulfonyl)benzamide]",–,500 to 1000 nM
"CCC12CC(C3=C(CN4CCN(c5ccc(C(=O)NS(=O)(=O)c6ccc(N[C@H](CCN7CCOCC7)CSc7ccccc7)c([N+](=O)[O-])c6)cc5)CC4)CCC(C)(C)C3)(C1)C2 [Example 57, (R)-4-(4-((2-(3-ethylbicyclo[1.1.1]pentan-1-yl)-4,4-dimethylcyclohex-1-en-1-yl)methyl)piperazin-1-yl)-N-((4-((4-morpholino-1-(phenylthio)butan-2-yl)amino)-3-nitrophenyl)sulfonyl)benzamide]",> 1000 nM,> 1000 nM
"CC1(C)CCC(CN2CCN(c3ccc(C(=O)NS(=O)(=O)c4ccc(N[C@H](CCN5CCOCC5)CSc5ccccc5)c([N+](=O)[O-])c4)cc3)CC2)=C(C23CC(C)(C2)C3)C1 [Example 56, (R)-4-(4-((4,4-dimethyl-2-(3-methylbicyclo[1.1.1]pentan-1-yl)cyclohex-1-en-1-yl)methyl)piperazin-1-yl)-N-((4-((4-morpholino-1-(phenylthio)butan-2-yl)amino)-3-nitrophenyl)sulfonyl)benzamide]",> 1000 nM,500 to 1000 nM
"CC1(C)CCC(CN2CCN(c3ccc(C(=O)NS(=O)(=O)c4ccc(NCC5CCOCC5)c([N+](=O)[O-])c4)c(Oc4cnc5[nH]ccc5c4)c3)CC2)=C(c2ccc(Cl)cc2)C1 [ABT-199, reference compound]",< 100 nM,> 1000 nM
"CC1(C)CCC(CN2CCN(c3ccc(C(=O)NS(=O)(=O)c4ccc(N[C@H](CCN5CCC(O)CC5)CSc5ccccc5)c(S(=O)(=O)C(F)(F)F)c4)cc3)CC2)=C(C23CC(C)(C2)C3)C1 [Example 68, (R)-4-(4-((4,4-dimethyl-2-(3-methylbicyclo[1.1.1]pentan-1-yl)cyclohex-1-en-1-yl)methyl)piperazin-1-yl)-N-((4-((4-(4-hydroxypiperidin-1-yl)-1-(phenylthio)butan-2-yl)amino)-3-((trifluoromethyl)sulfonyl)phenyl)sulfonyl)benzamide]",100 to 1000 nM,≤ 500 nM
CC1(C)CCC(CN2CCN(c3ccc(C(=O)NS(=O)(=O)c4ccc(N[C@H](CCN5CCC(O)C5)CSc5ccccc5)c(S(=O)(=O)C(F)(F)F)c4)cc3)CC2)=C(C23CC(C(F)F)(C2)C3)C1 (stereo partly drawn) [Example 71],–,500 to 1000 nM
"CCC12CC(C3=C(CN4CCN(c5ccc(C(=O)NS(=O)(=O)c6ccc(N[C@H](CCN7CCOCC7)CSc7ccccc7)c(S(=O)(=O)C(F)(F)F)c6)cc5)CC4)CCC(C)(C)C3)(C1)C2 [Example 53, (R)-4-(4-((2-(3-Ethylbicyclo[1.1.1]pentan-1-yl)-4,4-dimethylcyclohex-1-en-1-yl)methyl)piperazin-1-yl)-N-((4-((4-morpholino-1-(phenylthio)butan-2-yl)amino)-3-((trifluoromethyl)sulfonyl)phenyl)sulfonyl)benzamide]",> 1000 nM,–
"CC1(C)CCC(CN2CCN(c3ccc(C(=O)NS(=O)(=O)c4ccc(NCCN5CC6(CCOCC6)C5)c([N+](=O)[O-])c4)c(Oc4cnc5[nH]ccc5c4)c3)CC2)=C(C23CC(Cl)(C2)C3)C1 [Example 4, 2-(1H-pyrrolo[2,3-b]pyridin-5-yloxy)-N-(4-(2-(7-oxa-2-azaspiro[3.5]nonan-2-yl)ethylamino)-3-nitrophenylsulfonyl)-4-(4-((2-(3-chlorobicyclo[1.1.1]pentan-1-yl)-4,4-dimethylcyclohex-1-enyl)methyl)piperazin-1-yl)benzamide]",100 to 1000 nM,–
"CN1CCC(CNc2ccc(S(=O)(=O)NC(=O)c3ccc(N4CCN(CC5=C(C67CC(C)(C6)C7)CC(C)(C)CC5)CC4)cc3Oc3cnc4[nH]ccc4c3)cc2[N+](=O)[O-])CC1 [Example 12, 2-((1H-pyrrolo[2,3-b]pyridin-5-yl)oxy)-4-(4-((4,4-dimethyl-2-(3-methylbicyclo[1.1.1]pentan-1-yl)cyclohex-1-en-1-yl)methyl)piperazin-1-yl)-N-((4-(((1-methylpiperidin-4-yl)methyl)amino)-3-nitrophenyl)sulfonyl)benzamide]",< 100 nM,–
"CN1CCC(F)(CNc2ccc(S(=O)(=O)NC(=O)c3ccc(N4CCN(CC5=C(C67CC(C(F)(F)F)(C6)C7)CC(C)(C)CC5)CC4)cc3Oc3cnc4[nH]ccc4c3)cc2[N+](=O)[O-])CC1 [Example 29, 2-((1H-pyrrolo[2,3-b]pyridin-5-yl)oxy)-4-(4-((4,4-dimethyl-2-(3-(trifluoromethyl)bicyclo[1.1.1]pentan-1-yl)cyclohex-1-en-1-yl)methyl)piperazin-1-yl)-N-((4-(((4-fluoro-1-methylpiperidin-4-yl)methyl)amino)-3-nitrophenyl)sulfonyl)benzamide]",< 100 nM,–
"CN(CCO)CC[C@H](CSc1ccccc1)Nc1ccc(S(=O)(=O)NC(=O)c2ccc(N3CCN(CC4=C(C56CC(C(F)(F)F)(C5)C6)CC(C)(C)CC4)CC3)cc2)cc1S(=O)(=O)C(F)(F)F [Example 51, (R)-4-(4-((4,4-dimethyl-2-(3-(trifluoromethyl)bicyclo[1.1.1]pentan-1-yl)cyclohex-1-en-1-yl)methyl)piperazin-1-yl)-N-((4-((4-((2-hydroxyethyl)(methyl)amino)-1-(phenylthio)butan-2-yl)amino)-3-((trifluoromethyl)sulfonyl)phenyl)sulfonyl)benzamide]",100 to 1000 nM,–
"CN(C)[C@H]1CC[C@H](Nc2ccc(S(=O)(=O)NC(=O)c3ccc(N4CCN(CC5=C(C67CC(C)(C6)C7)CC(C)(C)CC5)CC4)cc3Oc3cnc4[nH]ccc4c3)cc2[N+](=O)[O-])CC1 [Example 14, 2-((1H-pyrrolo[2,3-b]pyridin-5-yl)oxy)-4-(4-((4,4-dimethyl-2-(3-methylbicyclo[1.1.1]pentan-1-yl)cyclohex-1-en-1-yl)methyl)piperazin-1-yl)-N-((4-(((1r,4r)-4-(dimethylamino)cyclohexyl)amino)-3-nitrophenyl)sulfonyl)benzamide]",< 100 nM,–
